Columns and labels:
human A2A receptor [1] = target: T1, human A2A receptor (Homo sapiens (Human), UniProt P29274); assay: Intracellular cAMP functional assay (HTRF), A2A; type: cell-based; details: HEK293 cells expressing recombinant human receptor
Procedure: (§1) Compound activity in human adenosine receptors A2A, A2B, A1, and A3 was measured in this functional cellular assay using an HTRF kit (Perkin Elmer). […] Dose response curves were performed in parallel with the reference compounds. The reference compounds used for A2A, A2B, A1, and A3, were respectively NECA, ZM241385, DPCPX, MRS. 12 μl of cells were mixed with 6 μl of the test compound at increasing concentrations and then incubated 10 min. Thereafter 6 μl of the reference agonist was added at a final concentration corresponding to the historical EC80. The plates were then incubated for 30 min at room temperature. After addition of the lysis buffer and 1 hour incubation, cAMP concentrations were estimated, according to the manufacturer specification, with the HTRF kit. The results showing functional activity of embodied compounds on adenosine receptors are shown below in Table 1.

human A2B receptor [2] = target: T2, human A2B receptor (Homo sapiens (Human), UniProt P29275); assay: Intracellular cAMP functional assay (HTRF), A2B; type: cell-based; details: HEK293 cells expressing recombinant human receptor
T2 sequence (P29275 whole entry): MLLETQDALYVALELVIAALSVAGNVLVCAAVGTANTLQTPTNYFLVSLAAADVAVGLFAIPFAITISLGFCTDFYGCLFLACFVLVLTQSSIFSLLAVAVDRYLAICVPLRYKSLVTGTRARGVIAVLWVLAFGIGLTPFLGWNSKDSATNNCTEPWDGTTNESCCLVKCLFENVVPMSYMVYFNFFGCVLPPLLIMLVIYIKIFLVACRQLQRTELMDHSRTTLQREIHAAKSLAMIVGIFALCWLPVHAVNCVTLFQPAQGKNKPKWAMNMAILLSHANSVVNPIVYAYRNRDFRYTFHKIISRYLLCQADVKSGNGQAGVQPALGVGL
Procedure: as §1

human A1 receptor [3] = target: T3, human A1 receptor (Homo sapiens (Human), UniProt P30542); assay: Intracellular cAMP functional assay (HTRF), A1; type: cell-based; details: HEK293 cells expressing recombinant human receptor
T3 sequence (P30542 whole entry): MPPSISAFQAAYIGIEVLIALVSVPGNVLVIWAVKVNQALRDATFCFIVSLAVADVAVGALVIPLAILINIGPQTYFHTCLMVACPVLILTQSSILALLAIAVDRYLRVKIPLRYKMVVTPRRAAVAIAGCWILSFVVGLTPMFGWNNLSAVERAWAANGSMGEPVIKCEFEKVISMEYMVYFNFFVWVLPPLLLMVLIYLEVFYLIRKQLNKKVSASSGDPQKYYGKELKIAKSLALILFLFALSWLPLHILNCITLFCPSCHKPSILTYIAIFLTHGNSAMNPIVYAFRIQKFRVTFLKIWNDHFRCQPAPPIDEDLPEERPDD
Procedure: as §1

human A3 receptor [4] = target: T4, human A3 receptor (Homo sapiens (Human), UniProt P0DMS8); assay: Intracellular cAMP functional assay (HTRF), A3; type: cell-based; details: HEK293 cells expressing recombinant human receptor
T4 sequence (P0DMS8 whole entry): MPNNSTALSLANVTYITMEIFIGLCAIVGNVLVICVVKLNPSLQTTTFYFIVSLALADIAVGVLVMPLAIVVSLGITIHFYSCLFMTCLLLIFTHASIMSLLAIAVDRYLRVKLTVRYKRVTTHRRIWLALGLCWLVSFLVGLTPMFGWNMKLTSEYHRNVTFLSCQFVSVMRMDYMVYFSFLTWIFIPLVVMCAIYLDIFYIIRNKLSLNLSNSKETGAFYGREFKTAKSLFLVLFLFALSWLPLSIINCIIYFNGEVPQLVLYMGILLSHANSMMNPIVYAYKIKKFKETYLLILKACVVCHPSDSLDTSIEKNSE
Procedure: as §1

human A2B receptor [5] = target: T2, human A2B receptor; assay: Radioligand binding assay, A2B ([3H]-DPCPX, HEK293 membranes); details: *Measured by radioligand binding
Procedure: (§2) A filtration binding assay was performed for adenosine receptors A1, A2A, A2B and A3. Radioligand binding competition assay was done in duplicate in the wells of a 96-well plate (Master Block, Greiner, 786201) containing binding buffer, receptor membrane extracts, a fixed concentration of tracer, and test compound at increasing concentrations. In order to eliminate effect of buffer components, binding buffer was the same for all four receptors and contained: 50 mM Tris-HCl pH 7.4, 5 mM MgCl, 1 mM EDTA, 150 mM NaCl, 0.1% Na-azide, and 5 U/ml adenosine-deaminase. Nonspecific binding was minimized by co-incubation with 200-fold excess of cold competitor. In all radioligand binding experiments, the samples were incubated in a final volume of 0.1 ml of binding buffer for 60 minutes at 25° C. and then filtered over Unifilter plates (Perkin Elmer) pre-treated for 2 hours to limit tracer non-specific binding. Filters were washed five times with 0.5 ml of ice-cold washing buffer (50 mM Tris-HCl pH 7.4, 5 mM MgCl, 1 mM EDTA), and 50 μL of Microscint 20 (Perkin Elmer) were added to each filter. The plates were incubated 15 min at room temperature on an orbital shaker and then counted with a TopCount™ for 1 min/well.
For A2B receptor, the assay was carried with [3H]-DPCPX and membranes prepared from HEK293 cells transfected with human A2B receptor (Euroscreen FAST-003B).

human A1 receptor [6] = target: T3, human A1 receptor; assay: Radioligand binding assay, A1 ([3H]-DPCPX, CHO-K1 membranes); details: *Measured by radioligand binding
Procedure: as §2
For A1 receptor, the assay was performed with [3H]-DPCPX and membranes from CHO-Kl cells transfected with human A1 receptor (Euroscreen FAST-001B).

human A2A receptor [7] = target: T1, human A2A receptor; assay: Radioligand binding assay, A2A ([3H]-NECA, HEK293 membranes); details: *Measured by radioligand binding
Procedure: as §2
For A2A receptor, the assay was performed with [3H-NECA and membranes from HEK293 cells transfected with human A2A receptor (Euroscreen FAST-002B).

human A3 receptor [8] = target: T4, human A3 receptor; assay: Radioligand binding assay, A3 ([125I]-MECA, CHO-K1 membranes); details: *Measured by radioligand binding
Procedure: as §2
For A3 receptor, the assay was carried out with [125IJ-MECA and membranes from CHO-Kl cells transfected with human A3 receptor (Euroscreen FAST-004B).

T1 sequence (P29274 whole entry): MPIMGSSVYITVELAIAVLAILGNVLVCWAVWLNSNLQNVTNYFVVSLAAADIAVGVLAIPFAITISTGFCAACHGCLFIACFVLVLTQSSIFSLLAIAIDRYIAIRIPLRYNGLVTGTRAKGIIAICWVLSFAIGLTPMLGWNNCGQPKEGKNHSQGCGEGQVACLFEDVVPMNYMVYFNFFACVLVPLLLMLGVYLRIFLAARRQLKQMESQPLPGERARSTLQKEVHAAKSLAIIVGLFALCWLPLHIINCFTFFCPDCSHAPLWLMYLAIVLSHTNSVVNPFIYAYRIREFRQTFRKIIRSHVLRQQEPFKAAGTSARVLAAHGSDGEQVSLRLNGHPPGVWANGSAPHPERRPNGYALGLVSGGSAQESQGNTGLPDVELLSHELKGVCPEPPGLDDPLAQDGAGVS

| SMILES | EC50 (human A2A receptor [1]) [nM] | EC50 (human A2B receptor [2]) [nM] | EC50 (human A1 receptor [3]) [nM] | EC50 (human A3 receptor [4]) [nM] | EC50 (human A2B receptor [5]) [nM] | EC50 (human A1 receptor [6]) [nM] | EC50 (human A2A receptor [7]) [nM] | EC50 (human A3 receptor [8]) [nM] |
| --- | --- | --- | --- | --- | --- | --- | --- | --- |
| N#Cc1cccc(-c2nc(Nc3n[nH]c(C4CC4)n3)sc2-c2ccncc2F)c1 [Compound 2, 3-{2-[(5-cyclopropyl-1H-1,2,4-triazol-3-yl)amino]-5-(3-fluoropyridin-4-yl)-1,3-thiazol-4-yl}benzonitrile] | 78.9 | 0.3 | 0.78 | > 20000 |  |  |  |  |
| Cc1cc(-c2sc(Nc3n[nH]c(C4CC4)n3)nc2-c2cccc(C#N)c2)ccn1 [Compound 7, 3-{2-[(5-Cyclopropyl-1H-1,2,4-Triazol-3-Yl)Amino]-5-(2-Methylpyridin-4-Yl)-1,3-Thiazol-4-Yl}Benzonitrile] | 24.4 | 1.4 | 1.7 | 1740 |  |  |  |  |
| Cc1nc(Nc2nc(-c3cccc(C#N)c3)c(-n3ccnc3CO)s2)n[nH]1 [Compound 21, 3-{5-[2-(Hydroxymethyl)-1H-Imidazol-1-Yl]-2-[(5-Methyl-1H-1,2,4-Triazol-3-Yl)Amino]-1,3-Thiazol-4-Yl}Benzonitrile] | 6980 | 1.64 | > 30000 | > 30000 |  |  |  |  |
| N#Cc1cccc(-c2nc(Nc3n[nH]c(C4CC4)n3)sc2-c2ccncc2Cl)c1 [Compound 5, 3-[5-(3-Chloropyridin-4-Yl)-2-[(5-Cyclopropyl-1H-1,2,4-Triazol-3-Yl)Amino]-1,3-Thiazol-4-Yl]Benzonitrile] | 478 | 0.76 | 2.3 | 2350 |  |  |  |  |
| Fc1ccccc1-c1nc(Nc2n[nH]c(C3CCC3)n2)sc1-c1ccncc1F [Compound 1, 5-Cyclobutyl-N-[4-(2-fluorophenyl)-5-(3-fluoropyridin-4-yl)-1,3-thiazol-2-yl]-1H-1,2,4-triazol-3-amine] |  |  |  |  | 2.2 | < 5 | > 10000 | > 10000 |
| Cc1nccc(-c2sc(Nc3n[nH]c(C4CC4)n3)nc2-c2cccc(C#N)c2)c1C [Compound 6, 3-{2-[(5-Cyclopropyl-1H-1,2,4-Triazol-3-Yl)Amino]-5-(2,3-Dimethylpyridin-4-Yl)-1,3-Thiazol-4-Yl}Benzonitrile] | 206 | 0.84 | 1.2 | 2060 |  |  |  |  |
| Cc1cc(-c2sc(Nc3n[nH]c(CO)n3)nc2-c2cccc(C#N)c2)c(C)cn1 [Compound 14, 3-[5-(2,5-Dimethylpyridin-4-Yl)-2-{[5-(Hydroxymethyl)-1H-1,2,4-Triazol-3-Yl]Amino}-1,3-Thiazol-4-Yl]Benzonitrile] | > 10000 | 3 | 36.1 | > 20000 |  |  |  |  |
| Cc1cc(-c2sc(Nc3n[nH]c(C4CC4)n3)nc2-c2cccc(C#N)c2)c(C)cn1 [Compound 4, 3-{2-[(5-Cyclopropyl-1H-1,2,4-Triazol-3-Yl)Amino]-5-(2,5-Dimethylpyridin-4-Yl)-1,3-Thiazol-4-Yl}Benzonitrile] | 3890 | 0.99 | 16.4 | > 20000 |  |  |  |  |
| N#Cc1cccc(-c2nc(Nc3nc[nH]n3)sc2-n2ccnc2CO)c1 [Compound 19, 3-{5-[2-(Hydroxymethyl)-1H-Imidazol-1-Yl]-2-[(1H-1,2,4-Triazol-3-Yl)Amino]-1,3-Thiazol-4-Yl}Benzonitrile] | 5760 | 2.01 | 885 | > 3400 |  |  |  |  |
| Cc1cc(-c2sc(Nc3n[nH]c(C)n3)nc2-c2cccc(C#N)c2)c(C)cn1 [Compound 13, 3-[5-(2,5-Dimethylpyridin-4-Yl)-2-[(5-Methyl-1H-1,2,4-Triazol-3-Yl)Amino]-1,3-Thiazol-4-Yl]Benzonitrile] | > 10000 | 2.8 | 65 | > 20000 |  |  |  |  |
| Cc1nccn1-c1sc(Nc2n[nH]c(C3CC3)n2)nc1-c1cccc(C#N)c1 [Compound 8, 3-{2-[(5-Cyclopropyl-1H-1,2,4-Triazol-3-Yl)Amino]-5-(2-Methyl-1H-Imidazol-1-Yl)-1,3-Thiazol-4-Yl}Benzonitrile] | > 10000 | 2.9 | 107 | > 20000 |  |  |  |  |
| Cc1nccn1-c1sc(Nc2nc[nH]n2)nc1-c1cccc(C#N)c1 [Compound 9, 3-[5-(2-Methyl-1H-Imidazol-1-Yl)-2-[(1H-1,2,4-Triazol-3-Yl)Amino]-1,3-Thiazol-4-Yl]Benzonitrile] | > 10000 | 3.3 | 145 | 2350 |  |  |  |  |
